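Where inhibition never reached the appropriate level, the endpoint shown equals the highest concentration tested. Otherwise, values were interpolated linearly from a five-concentration, 48-hour dose response in 96-well plates. GI50 = concentration required for 50% inhibition of growth. TGI: concentration producing complete growth inhibition.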 Peptide text beside a SMILES is read from it. * marks the point of attachment. OSu = O=C1CCC(=O)N1O*; OBn = c1ccc(CO*)cc1; Bn = c1ccc(C*)cc1
Columns and labels:
Assay in all cases: inhibition of tumour cell growth, NCI panel, 48 h
SNB-19 CNS = test system: SNB-19 CNS
SN12C renal = test system: SN12C renal
HCT-15 colon = test system: HCT-15 colon
LOX IMVI melanoma = test system: LOX IMVI melanoma
COLO 205 colon = test system: COLO 205 colon
786-0 renal = test system: 786-0 renal
MOLT-4 leukemia = test system: MOLT-4 leukemia
PC-3 prostate = test system: PC-3 prostate
NCI-H522 lung = test system: NCI-H522 lung
HCC-2998 colon = test system: HCC-2998 colon

SMILES | TGI (SNB-19 CNS) [µM] | TGI (SN12C renal) [µM] | TGI (HCT-15 colon) [µM] | TGI (LOX IMVI melanoma) [µM] | TGI (COLO 205 colon) [µM] | TGI (786-0 renal) [µM] | TGI (MOLT-4 leukemia) [µM] | TGI (PC-3 prostate) [µM] | TGI (NCI-H522 lung) [µM] | TGI (HCC-2998 colon) [µM] | GI50 (SN12C renal) [µM] | GI50 (HCT-15 colon) [nM] | GI50 (HCC-2998 colon) [nM] | GI50 (LOX IMVI melanoma) [nM] | GI50 (COLO 205 colon) [µM] | GI50 (PC-3 prostate) [nM]
CC(C)(C)OC(=O)N1C/C=C\C(=O)C2(OCCO2)c2ccccc21 | > 100 | 88.9 | > 100 | 32.6 | 35.7 | 56.9 | 76.5 | > 100 | 78.8 |  |  |  |  |  |  | 
CC(=O)N1C(OCc2ccccc2)CCN1c1ccccc1 (stereo not drawn) | > 10 | > 10 | > 10 | > 10 | > 10 | > 10 | > 10 | > 10 | > 10 |  |  |  |  |  |  | 
CC(C)CC(NC(=O)C(N)CCC(=O)OCc1ccccc1)C(=O)NC(COCc1ccccc1)C(=O)NC(Cc1ccccc1)C(=O)ON1C(=O)CCC1=O (stereo not drawn) (H-E(OBn)LS(Bn)F-OSu; configuration not given here) | 95.1 | > 100 |  | 50.7 |  | > 100 | 62.8 | 63.2 | 47.8 |  |  |  |  |  |  | 
Cc1cnc2[nH]c(-c3cccc(Cl)c3)cc(=O)c2c1 | 41.3 | > 100 | > 100 | 11.6 | > 37.1 | > 100 |  | > 100 | 15 |  |  |  |  |  |  | 
O=C1C(CN2CCCC2)CCCC1CN1CCCC1 (stereo not drawn) | > 100 | 32.5 | 4.54 | 6.26 | 3.07 | 2.42 |  | 32.3 | 0.29 | 34.3 |  |  |  |  |  | 
CN1CCN(c2c(O)c3c(c(O)c2Cl)C(=O)C=CC3=O)CC1 | 6.32 | 2.1 | 0.491 | 1.66 | 0.38 | 0.718 |  | 3.27 | 0.765 | 3.99 |  |  |  |  |  | 
CCOC(=O)CN(Cc1ccccc1)Cc1c(C(=O)c2ccccc2)c2ccccc2n1C(=O)c1ccccc1 | > 100 | > 100 | > 100 | > 100 | > 100 | > 100 | > 100 |  | > 100 | > 100 |  |  |  |  |  | 
COc1cc([C@@H]2c3cc4c(cc3[C@@H](Nc3ccc(NC(=O)c5cc(NC(=O)c6cc([N+](=O)[O-])cn6C)cn5C)cc3)[C@H]3COC(=O)[C@H]23)OCO4)cc(OC)c1O | > 55.1 | 26.5 | > 55.2 | > 44.1 | 17.8 | > 39.7 |  |  | > 100 | 26.4 |  |  |  |  |  | 
CC1CN=C(N(C)C(=O)Nc2ccc(Cl)c(Cl)c2)S1 (stereo not drawn) | > 100 | > 100 | 91.5 | 91.4 | > 100 | > 100 | > 100 | > 100 |  | > 100 |  |  |  |  |  | 
O=c1cc2cc(O)[nH]c(=O)c2c(O)[nH]1 | > 100 | > 100 | > 100 | > 100 | > 100 |  | > 100 |  | > 100 |  |  |  |  |  |  | 
CC(=O)OC1C(O)C(C)OC(OC(=O)C2CCC3C(C2)OC2(CC(OC(=O)/C=C/c4ccccc4)C(C)CO2)C32CO2)C1OC1OC(C)C(O)C(O)C1O (stereo not drawn) | 0.0909 | 0.833 | 39.2 | 0.362 | 0.0569 |  | 5.05 |  | 0.0487 | 0.0881 |  |  |  |  |  | 
O=[N+]([O-])c1cc(Cl)ccc1S(=O)(=O)c1cc(Cl)cc2c1NCCC2 | > 100 | > 100 | > 100 | > 100 | > 100 | > 100 | > 100 | > 100 |  | > 100 |  |  |  |  |  | 
Cc1oc2c(C)c3oc(=O)cc(C)c3cc2c1CN | > 100 | > 100 | > 100 | 41.9 | > 100 | > 100 | > 100 |  | > 100 | 64.7 |  |  |  |  |  | 
Cc1ccsc1/C=N/Nc1ccccn1 | > 100 | > 100 | > 100 | > 100 | > 100 | > 100 | 73.9 | > 100 |  | > 100 |  |  |  |  |  | 
C1=C[C@]2(CCC13OCCO3)COc1ccccc12 | > 100 | > 100 | > 100 | 59 | > 100 | > 100 | > 100 | > 100 |  | > 100 |  |  |  |  |  | 
COc1cc(C(CC(OC)OC)=C(C#N)C#N)cc(OC)c1OC | > 100 | > 100 | > 100 | 25.1 | 26.6 | > 100 | 33.9 |  | 32.9 | 40.4 |  |  |  |  |  | 
CCc1cc2c(oc3c4ccccc4ccc23)c(=O)[nH]1 | > 10 |  |  | > 10 |  | > 10 | > 10 | > 10 | > 10 |  |  |  |  |  |  | 
NC(CNc1ccc(O)cc1)C(=O)O (stereo not drawn) | > 100 | > 100 | > 100 | > 100 | > 100 | 30.2 | > 100 |  | > 100 |  |  |  |  |  |  | 
C/C(=C/c1c(C)[nH]c(=O)[nH]c1=O)C(=O)O | > 1370 | > 1380 | > 1380 | > 1380 | > 1380 |  | > 1380 |  | > 1380 | > 1380 |  |  |  |  |  | 
COc1cc(C)cc(OC)c1/C=C/C(=O)O | > 100 | > 100 | > 100 | > 100 |  | > 100 | > 100 | > 100 | > 100 | > 100 |  |  |  |  |  | 
CC(CC(C)(C)[N+](C)(C)C)[N+](C)(C)C (stereo not drawn) | > 100 | > 100 | > 100 |  | > 100 | > 100 | > 100 | > 100 | > 100 | > 100 |  |  |  |  |  | 
CC(C)(CN1CCCCC1)C(=O)/C=C/c1c(Cl)cccc1Cl | 8.39 | 3.1 | 2.28 | 2.68 | 3.05 | 2.89 |  | 3.46 | 0.913 | 3.23 |  |  |  |  |  | 
COc1ccc(/C=C/C(c2cc(OC)c(OC)c(OC)c2)n2cncn2)cc1O (stereo not drawn) |  | > 100 | > 100 | > 100 | 16.8 |  |  | > 100 |  | > 100 | 7.19 | 50.8 | 3000 | 51.1 | 3.66 | 36
